In data set [1] the test system is HIV-1 III-b. The data set is described as follows: HIV-1 neutralization assay (syncytia-forming on MT-2 cells). To be noted: day 21; 457 TCID50 HIV per ml; 2 hours at 37° C.; maximum 800 μg/ml. The class given is cell-based, Human Immuno-deficiency Virus Type 1. As to the method:
(§1) A neutralization assay was performed on HIV-1 III-b as substantially described by Groenink M. et al., J. Virol 69, 523-527 (1995). In short, this assay comes down to the virus-neutralizing capacity of the different peptides being tested with an inoculum of 457 TCID50HIV per ml per neutralization, which is incubated at 37° C. for two hours with a twofold dilution series of the peptide for testing (maximum 800 μg/ml final concentration). The incubations are performed in a 5 mM phosphate buffer. On day 7, 14 and 21 the neutralization is assessed on the basis of the detected cytopathic effect (syncytia-forming) on MT-2 cells.

Data set [2] has as its system Herpes Simplex Virus (HSV). The data set is described as follows: Antiviral activity against Herpes Simplex Virus (TCID50 on Vero-cells after pre-incubation with peptide). The class given is cell-based. The procedure: In test phials 10 μl HSV (Department of Virology Academisch Ziekenhuis Leiden (Leiden University Hospital), lab strain 96-6700 P (TCID50 10^5-10^6), was supplemented with peptide and NaPB to 200 μl. For the positive control the peptide was replaced by a human neutrophil defensin pool (HNP1-3). The test phials were subsequently incubated at 37° C. for 3 hours. Tenfold dilutions were then made in Dulbecco's Modified Eagles Medium (DMEM) with 2% foetal calf serum (FSCi). Diverse peptides, synthesized in identical manner, were used as negative control in the experiments.
Vero-cells were isolated using detachment buffer (0.25% trypsin and 0.03% EDTA in PBS), washed and brought to a concentration of 2×10^5 cells per ml DMEM +2% FCSi. In 96 wells-plates (Nunclon) 100 μl cell suspension (2×10^4 cells) was added per well. Acyclovir (ACV) was added as control to several wells about two hours (t=−2 hours) before infection. 50 μl of a dilution was added to each well at the point in time t=0.
After 3 days incubation in a CO2-stove of 37° C. the cytopathological effect (cpe) was scored by counting under the microscope and the TCID50 (tissue culture […] dose) was determined using the Reed & Muench method (Dulbecco & Ginsberg, “Virology”, JB Lippincott Co., Philadelphia, 2nd edition, 1988).
The effectiveness of peptide 10 in time was then determined. […]

Data set [3] relates to MT-2 cells. The data set is described as follows: Cytotoxicity seen in the HIV-1 neutralization assay. The data set is classed as cell-based. The conditions noted are these: 800 μg/ml. As to the method:
as §1

Results on 5 sequences are retold here after patent US20020111305A1, “Antiviral peptides” (priority 1998, published 2002).

Where no end group is shown, it is not given here.

“DSHAKRHHGYKRKFHEKHHSHRGY [his 5, reference compound]”: the “neutralizing capacity: μg/ml necessary for neutralization” value in data set [1] is recorded as “no neutralization”.
Still for that read-out and setting: the same measure for “KRKFHEKHHSHRGY [dh-5, the C-terminal part of histatin 5, reference compound]”: “no neutralisation”; for KRLFKELLFSLRKY [peptide 4]: 200 µg/mL.
Regarding KRLFKKLLFSLRKY [peptide 10], in data set [1], the “neutralizing capacity: μg/ml necessary for neutralization” value was found to be 200 µg/mL. Moreover, in data set [2] (in high concentrations), the “activity against HSV compared with HNP, dilution series (FIG. 3)” value is on record as “more effective than HNP”. Also, in data set [2] (peptide at sufficiently high concentrations (50 μg/ml), 3 hours at 37° C.), the “effectiveness against HSV compared with acyclovir and HNP (FIG. 1)” value is “at least as effective as acyclovir and HNP”.
For “LLLFLLKKRKKRKY [peptide 11, LLLFLLKKRKKRKY]”, the “cytotoxicity at the highest concentration” value in data set [3] is “# peptide 11 was cytoxic at the highest concentration (800 μg/ml)”.
